Test results taken from article PMC3914206.

How the values were obtained:
panel of 442 kinases [1] = biological target: T1, panel of 442 kinases (Homo sapiens, UniProt P07949, V804L); type: binding; settings: Compound Concentration 10 µM
T1 construct: purchased KINOMEscan
Description: (§1) We assessed the selectivity of members of this scaffold using the KINOMEscan methodology across a near comprehensive panel of 442 kinases [[18,27]].

panel of 442 kinases [2] = biological target: T2, panel of 442 kinases (Homo sapiens, UniProt Q6ZN16); type: binding; settings: Compound Concentration 10 µM
T2 construct: purchased KINOMEscan
T2 sequence (Q6ZN16 1-1313): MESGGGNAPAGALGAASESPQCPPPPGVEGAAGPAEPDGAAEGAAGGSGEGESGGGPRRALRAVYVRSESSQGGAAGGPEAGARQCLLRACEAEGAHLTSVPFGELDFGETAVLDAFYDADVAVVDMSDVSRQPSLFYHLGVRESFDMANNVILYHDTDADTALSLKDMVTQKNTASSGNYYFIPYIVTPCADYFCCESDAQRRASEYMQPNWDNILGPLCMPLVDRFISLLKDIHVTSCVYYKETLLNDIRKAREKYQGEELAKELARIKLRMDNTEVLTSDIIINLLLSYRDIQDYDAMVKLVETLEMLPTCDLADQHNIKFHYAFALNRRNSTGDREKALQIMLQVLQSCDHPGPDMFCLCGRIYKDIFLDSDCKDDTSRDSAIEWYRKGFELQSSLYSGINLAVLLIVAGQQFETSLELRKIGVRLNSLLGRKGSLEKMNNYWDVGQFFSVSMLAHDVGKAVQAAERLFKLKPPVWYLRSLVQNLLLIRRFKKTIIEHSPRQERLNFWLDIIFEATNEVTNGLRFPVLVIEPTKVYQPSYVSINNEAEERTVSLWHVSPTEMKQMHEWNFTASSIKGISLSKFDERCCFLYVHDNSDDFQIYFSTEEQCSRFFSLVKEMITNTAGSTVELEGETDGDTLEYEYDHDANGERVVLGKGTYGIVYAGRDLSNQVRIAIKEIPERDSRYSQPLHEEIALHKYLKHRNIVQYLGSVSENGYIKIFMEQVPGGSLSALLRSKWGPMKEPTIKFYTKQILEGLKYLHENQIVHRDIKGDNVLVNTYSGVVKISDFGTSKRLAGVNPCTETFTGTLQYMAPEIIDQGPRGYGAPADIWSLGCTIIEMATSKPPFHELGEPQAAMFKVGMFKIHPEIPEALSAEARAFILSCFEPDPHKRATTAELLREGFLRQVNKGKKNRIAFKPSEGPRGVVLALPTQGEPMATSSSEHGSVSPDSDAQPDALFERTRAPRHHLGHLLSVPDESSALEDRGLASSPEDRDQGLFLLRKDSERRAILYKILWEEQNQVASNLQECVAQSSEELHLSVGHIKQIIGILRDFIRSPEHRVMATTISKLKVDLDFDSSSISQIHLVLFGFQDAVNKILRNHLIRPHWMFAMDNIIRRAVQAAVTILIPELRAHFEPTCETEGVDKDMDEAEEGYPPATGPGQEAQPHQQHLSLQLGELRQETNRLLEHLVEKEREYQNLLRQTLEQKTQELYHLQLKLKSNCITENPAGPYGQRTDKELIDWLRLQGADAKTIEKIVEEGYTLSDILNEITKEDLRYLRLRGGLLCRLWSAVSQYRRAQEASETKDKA
Description: as §1

T1 sequence (P07949 29-1114 V804L): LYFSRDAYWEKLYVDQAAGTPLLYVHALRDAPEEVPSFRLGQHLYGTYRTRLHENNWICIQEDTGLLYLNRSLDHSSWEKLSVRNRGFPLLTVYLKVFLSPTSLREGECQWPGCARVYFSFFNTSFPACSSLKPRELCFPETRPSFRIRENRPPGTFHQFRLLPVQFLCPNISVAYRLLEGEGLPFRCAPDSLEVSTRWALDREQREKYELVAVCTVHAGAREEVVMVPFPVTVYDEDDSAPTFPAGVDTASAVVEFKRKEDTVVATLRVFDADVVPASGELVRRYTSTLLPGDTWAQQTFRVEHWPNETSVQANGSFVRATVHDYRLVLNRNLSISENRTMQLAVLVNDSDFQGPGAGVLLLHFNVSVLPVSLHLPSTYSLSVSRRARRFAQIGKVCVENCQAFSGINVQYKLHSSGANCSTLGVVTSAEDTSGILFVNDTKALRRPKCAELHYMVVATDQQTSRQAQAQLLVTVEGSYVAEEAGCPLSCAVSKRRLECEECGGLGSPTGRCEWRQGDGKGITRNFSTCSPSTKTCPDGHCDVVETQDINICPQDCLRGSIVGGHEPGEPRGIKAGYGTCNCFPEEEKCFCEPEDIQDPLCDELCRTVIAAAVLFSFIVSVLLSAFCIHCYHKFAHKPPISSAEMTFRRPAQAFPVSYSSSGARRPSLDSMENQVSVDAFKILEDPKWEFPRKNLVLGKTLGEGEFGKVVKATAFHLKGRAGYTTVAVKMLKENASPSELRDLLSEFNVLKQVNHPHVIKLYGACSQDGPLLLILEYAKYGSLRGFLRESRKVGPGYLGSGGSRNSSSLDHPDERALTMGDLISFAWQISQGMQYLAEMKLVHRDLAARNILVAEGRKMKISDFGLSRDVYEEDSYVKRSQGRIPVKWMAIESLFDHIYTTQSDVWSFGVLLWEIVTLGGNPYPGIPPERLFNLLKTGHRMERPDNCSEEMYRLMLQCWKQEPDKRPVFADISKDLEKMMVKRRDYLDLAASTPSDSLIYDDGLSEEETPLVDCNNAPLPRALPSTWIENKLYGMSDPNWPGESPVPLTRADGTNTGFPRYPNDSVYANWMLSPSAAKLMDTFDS

| Compound | KINOMEscan: RET(V804L) (panel of 442 kinases [1]) | KINOMEscan: MAP3K15 (panel of 442 kinases [2]) |
| --- | --- | --- |
| COc1cc(C(=O)N2CCC(N3CCN(C)CC3)CC2)ccc1Nc1ncc2c(n1)N(C1CCCC1)c1ccccc1C(=O)N2C [Compound 25, 11-cyclopentyl-2-((2-methoxy-4-(4-(4-methylpiperazin-1-yl)piperidine-1-carbonyl)phenyl)amino)-5-methyl-5H-benzo[e]pyrimido[5,4-b][1,4]diazepin-6(11H)-one] | 100 | 88 |
| CCOc1cc(C(=O)N2CCC(N3CCN(C)CC3)CC2)ccc1Nc1ncc2c(n1)N(C1CCCC1)c1ccccc1C(=O)N2C [Compound 26] | 100 | 95 |
| COc1cc(C(=O)N2CCC(N3CCN(C)CC3)CC2)ccc1Nc1ncc2c(n1)N1CCc3cccc(c31)C(=O)N2C [Compound 24] | 77 | 77 |
| COc1cc(C(=O)N2CCC(N3CCN(C)CC3)CC2)ccc1Nc1ncc2c(n1)N(C)c1ccccc1C(=O)N2C [15 (LRRK2-IN-1)] | 89 | 69 |
